We go through one molecule from patent US6841578B2, “Treatment and prevention of mucositis in cancer patients” (priority 2001, dated 2005).

Experiment [1] has as its system radiation-induced mucositis. Nature of the experiment: Hamster model of acute radiation-induced mucositis treated with resveratrol. As to conditions: for percentage of days where hamsters had a mucositis score of three or higher: qd, day -1 to day 20, 40 Gy on day 0, control 46.0%. It is filed as in vivo, Male Golden Syrian hamsters.
Another experiment relates to NF-κB. To be noted: induction by TNF-α; phosphorylation and nuclear translocation of p65 subunit suppressed; cited from earlier work.

Take `Oc1ccc(/C=C/c2cc(O)cc(O)c2)cc1` [resveratrol, trans-3,4′,5-trihydroxystilbene]: the “percentage of days where hamsters had a mucositis score of three or higher” value turned out to be 21.6% in experiment [1] (1 mM resveratrol, intraperitoneal) and 31.2% in experiment [1] (5 mM resveratrol, intraperitoneal). In addition, in experiment [1] (intraperitoneal, 1 mM and 5 mM (FIG. 2)), the “severity of mucositis compared to the control” value is recorded as “reduced the severity of mucositis”. Besides, the “efficacy of 1 mM compared with 5 mM treatment” value in experiment [1] (intraperitoneal, 1 mM versus 5 mM) is given as “more effective”. Moreover, the “efficacy of topical application on mucositis” value in experiment [1] (topical, tid, 1 mM and 5 mM) is recorded as “not statistically significant, indicated a trend of efficacy”. Besides, the “activation of NF-κB” value in the experiment on NF-κB is listed as “blocked the activation of NF-κB”.
